Assay results as given in the supplement of paper PMC10307832.

Assays:
Test in all cases: relative viability (nuclei count vs DMSO), 5 days (fraction); higher = more cells survive
Vemurafenib + Bortezomib = compound: CCCS(=O)(=O)Nc1ccc(F)c(C(=O)c2c[nH]c3ncc(-c4ccc(Cl)cc4)cc23)c1F [Vemurafenib] + CC(C)C[C@H](NC(=O)[C@H](Cc1ccccc1)NC(=O)c1cnccn1)B(O)O [Bortezomib] (partner 0.002 µM)
Procedure, shortened: (§1)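 Cells from lung cancer lines were seeded into 1536-well plates and, one day later, dosed by pin tool. Treatments were either a single drug or a fixed dose of an anchor drug with five library-drug doses (not always all listed) in √10 steps. After 5 days, nuclei were stained in a one-step fixation (final 0.05% Triton X-100, 1% formaldehyde, 1 ug/ml Hoechst) and counted on 4× images, and relative viability is the treated-to-vehicle nuclei ratio, as the median of duplicate plates.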

Vemurafenib + Tozasertib = compound: CCCS(=O)(=O)Nc1ccc(F)c(C(=O)c2c[nH]c3ncc(-c4ccc(Cl)cc4)cc23)c1F [Vemurafenib] + Cc1cc(Nc2cc(N3CCN(C)CC3)nc(Sc3ccc(NC(=O)C4CC4)cc3)n2)n[nH]1 [Tozasertib] (partner 0.1 µM)
Procedure, shortened: as §1

Alpelisib + Bortezomib = compound: Cc1nc(NC(=O)N2CCC[C@H]2C(N)=O)sc1-c1ccnc(C(C)(C)C(F)(F)F)c1 [Alpelisib] + CC(C)C[C@H](NC(=O)[C@H](Cc1ccccc1)NC(=O)c1cnccn1)B(O)O [Bortezomib] (partner 0.002 µM)
Procedure, shortened: as §1

OSI-027 + Tozasertib = compound: COc1cccc2cc(-c3nc([C@H]4CC[C@H](C(=O)O)CC4)n4ncnc(N)c34)[nH]c12 [OSI-027] + Cc1cc(Nc2cc(N3CCN(C)CC3)nc(Sc3ccc(NC(=O)C4CC4)cc3)n2)n[nH]1 [Tozasertib] (partner 0.1 µM)
Procedure, shortened: as §1

Row | Cell Line | relative viability (Vemurafenib + Bortezomib; first compound 0.03162 µM) | relative viability (Vemurafenib + Bortezomib; first compound 0.3162 µM) | relative viability (Vemurafenib + Bortezomib; first compound 1 µM) | relative viability (Vemurafenib + Tozasertib; first compound 0.03162 µM) | relative viability (Vemurafenib + Tozasertib; first compound 0.3162 µM) | relative viability (Vemurafenib + Tozasertib; first compound 1 µM) | relative viability (Alpelisib + Bortezomib; first compound 0.04 µM) | relative viability (Alpelisib + Bortezomib; first compound 0.1265 µM) | relative viability (Alpelisib + Bortezomib; first compound 0.4 µM) | relative viability (Alpelisib + Bortezomib; first compound 1.265 µM) | relative viability (Alpelisib + Bortezomib; first compound 4 µM) | relative viability (OSI-027 + Tozasertib; first compound 0.01 µM) | relative viability (OSI-027 + Tozasertib; first compound 0.03162 µM) | relative viability (OSI-027 + Tozasertib; first compound 0.1 µM) | relative viability (OSI-027 + Tozasertib; first compound 0.3162 µM) | relative viability (OSI-027 + Tozasertib; first compound 1 µM) | relative viability (Vemurafenib + Bortezomib; first compound 0.1 µM) | relative viability (Vemurafenib + Tozasertib; first compound 0.1 µM)
1 | HCC-827 | 0.968 | 0.765 | 1.16 | 0.397 | 0.42 | 0.41 | 1.1 | 0.904 | 1.28 | 1.02 | 0.942 | 0.447 | 0.478 | 0.456 | 0.343 | 0.363 |  | 
2 | HOP-62 | 0.814 | 0.648 | 1.07 | 0.418 | 0.332 | 0.389 | 0.749 | 0.397 | 0.986 | 0.811 | 0.807 | 0.382 | 0.39 | 0.369 | 0.442 | 0.277 | 0.868 | 0.372
3 | IA-LM | 0.802 | 0.822 | 0.598 |  |  |  | 0.985 | 0.794 | 0.794 | 0.698 | 0.728 |  |  |  |  |  | 0.764 | 
4 | LC-2-ad | 0.918 | 0.829 | 0.976 | 0.396 |  | 0.44 | 1.05 | 1.01 | 1.09 | 0.955 | 0.844 | 0.464 | 0.4 | 0.449 | 0.443 | 0.397 | 0.956 | 0.466
5 | LCLC-97TM1 | 0.495 | 0.528 | 0.742 | 0.206 | 0.269 | 0.166 | 0.682 |  | 0.86 | 0.384 | 0.237 | 0.299 | 0.192 | 0.228 | 0.18 | 0.0982 | 0.587 | 0.268
6 | LCLC-103H | 0.975 | 0.843 | 1.09 | 0.476 | 0.493 | 0.487 | 0.819 | 0.964 | 1.03 | 1.05 | 0.831 | 0.49 | 0.424 | 0.489 | 0.44 | 0.333 | 1.04 | 0.395
7 | LK-2 |  |  |  | 0.158 | 0.187 | 0.155 |  |  |  |  |  | 0.186 | 0.188 | 0.144 | 0.162 | 0.145 |  | 0.177
8 | LOU-NH91 | 0.478 |  | 0.534 | 0.599 |  | 0.705 | 0.478 | 0.457 | 0.51 | 0.537 | 0.474 | 0.656 | 0.617 | 0.571 | 0.658 | 0.484 | 0.467 | 
9 | LU99A | 1.02 | 1.05 | 1.04 | 0.245 | 0.316 | 0.264 | 1.07 | 1.12 | 1.14 | 0.874 | 0.614 | 0.249 | 0.302 | 0.252 | 0.239 | 0.175 | 1.07 | 0.256
10 | LXF-289 | 1.01 | 0.966 | 1.1 | 0.195 | 0.149 | 0.169 | 1 | 1.03 | 1.07 | 0.902 | 1.04 | 0.17 | 0.209 | 0.201 | 0.195 | 0.133 | 0.953 | 0.172
11 | NCI-H23 | 1 | 1.15 | 1.29 | 0.309 | 0.345 | 0.278 | 0.941 | 0.941 | 0.773 | 0.559 | 0.766 | 0.636 | 0.269 | 0.34 | 0.413 | 0.306 | 1.01 | 0.352
12 | NCI-H322M | 1.2 | 1.43 | 1.2 | 0.426 |  | 0.446 | 1.23 | 1.06 | 1.1 | 1.1 | 0.857 | 0.488 | 0.485 | 0.413 | 0.397 | 0.307 |  | 
13 | NCI-H358 |  |  |  | 0.122 | 0.107 | 0.111 |  |  |  |  |  | 0.105 | 0.0898 | 0.0968 | 0.0931 | 0.0733 |  | 0.107
14 | NCI-H522 |  |  |  | 0.609 | 0.592 | 0.631 |  |  |  |  |  | 0.536 | 0.625 | 0.524 | 0.522 | 0.431 |  | 0.471
15 | NCI-H1299 | 0.998 | 0.918 | 1 |  |  |  | 1.05 | 1.08 | 1.03 | 1.02 | 0.966 |  |  |  |  |  | 0.976 | 
16 | NCI-H1395 |  |  |  | 0.722 |  | 0.779 |  |  |  |  |  | 0.675 | 0.718 | 0.683 | 0.67 | 0.611 |  | 0.815
17 | NCI-H1563 | 0.855 | 0.762 | 0.846 |  |  |  | 0.807 | 0.85 | 0.816 | 0.687 | 0.803 |  |  |  |  |  | 0.658 | 
18 | NCI-H1623 |  |  |  | 0.409 | 0.452 | 0.41 |  |  |  |  |  | 0.391 | 0.414 | 0.417 | 0.414 | 0.233 |  | 
19 | NCI-H1648 |  |  |  | 0.489 | 0.962 | 0.477 |  |  |  |  |  | 0.412 |  | 0.419 | 0.366 | 0.305 |  | 
20 | NCI-H1703 | 0.527 | 0.32 | 0.257 |  |  |  | 0.348 | 0.208 | 0.231 | 0.223 | 0.234 |  |  |  |  |  | 0.438 | 
21 | NCI-H1792 | 0.875 | 0.721 | 0.957 |  |  |  | 0.927 | 0.888 | 1.05 | 0.851 | 0.315 |  |  |  |  |  | 0.951 | 
22 | NCI-H1793 |  |  |  | 0.288 | 0.323 | 0.264 |  |  |  |  |  | 0.284 | 0.313 | 0.28 | 0.239 | 0.209 |  | 
23 | NCI-H1944 |  |  |  | 0.268 | 0.274 | 0.256 |  |  |  |  |  | 0.239 | 0.251 | 0.22 | 0.221 | 0.175 |  | 0.201
24 | NCI-H2170 |  |  |  | 0.637 | 0.751 | 0.679 |  |  |  |  |  | 0.71 | 0.658 | 0.603 | 0.733 | 0.435 |  | 0.617
25 | NCI-H2342 |  |  |  | 0.477 | 0.629 | 0.417 |  |  |  |  |  | 0.445 | 0.509 | 0.492 | 0.449 | 0.421 |  | 0.478
26 | SK-MES-1 |  |  |  | 0.831 | 0.829 | 0.751 |  |  |  |  |  | 0.923 | 0.842 | 0.807 | 0.744 | 0.402 |  | 0.915
27 | SW 900 |  |  |  | 0.455 | 0.585 | 0.435 |  |  |  |  |  |  | 0.548 | 0.493 | 0.589 | 0.483 |  | 0.557
